This note sets out measurements from PubChem BioAssay AID1259407 (Chemical Carcinogenesis Research Information System (CCRIS), 2018).

For the data set, the system named is CCRIS mutagenicity, Ames/micronucleus/aberration tests. The experiment in a line: CCRIS mutagenicity studies.
Where [1] appears, read: Test System: AMES SALMONELLA TYPHIMURIUM, Strain/Indicator: TA97, Metabolic Activation: NONE, Method: STANDARD PLATE.
[2] abbreviates: Test System: AMES SALMONELLA TYPHIMURIUM, Strain/Indicator: TA98, Metabolic Activation: NONE, Method: STANDARD PLATE.
The mark [3] stands for this setting: Test System: AMES SALMONELLA TYPHIMURIUM, Strain/Indicator: TA100, Metabolic Activation: NONE, Method: STANDARD PLATE.
The mark [4] stands for this setting: Test System: AMES SALMONELLA TYPHIMURIUM, Strain/Indicator: TA98, Metabolic Activation: RAT, LIVER, S-9, AROCLOR 1254, Method: STANDARD PLATE.
Where [5] appears, read: Test System: AMES SALMONELLA TYPHIMURIUM, Strain/Indicator: TA98, Metabolic Activation: NONE, Method: PREINCUBATION
[6] abbreviates: Test System: AMES SALMONELLA TYPHIMURIUM, Strain/Indicator: TA100, Metabolic Activation: NONE, Method: PREINCUBATION

Calls of active or inactive are those of the source. The rule behind the calls is not given here.

Consider `O=C(NO)c1ccc(O)c(O)c1`, for which the mutagenic call is, setting by setting: under setting [1], “inactive; negative”; (Test System: AMES SALMONELLA TYPHIMURIUM, Strain/Indicator: TA97, Metabolic Activation: RAT, LIVER, S-9, DELOR 103, Method: STANDARD PLATE) “active; positive”; under setting [2], “inactive; negative”; (Test System: AMES SALMONELLA TYPHIMURIUM, Strain/Indicator: TA98, Metabolic Activation: RAT, LIVER, S-9, DELOR 103, Method: STANDARD PLATE) “inactive; negative”; under setting [3], “inactive; negative”; (Test System: AMES SALMONELLA TYPHIMURIUM, Strain/Indicator: TA100, Metabolic Activation: RAT, LIVER, S-9, DELOR 103, Method: STANDARD PLATE) “inactive; negative”. Further, the mutagenic call is, setting by setting: (Test System: AMES SALMONELLA TYPHIMURIUM, Strain/Indicator: TA102, Metabolic Activation: NONE, Method: STANDARD PLATE) “inactive; negative”; (Test System: AMES SALMONELLA TYPHIMURIUM, Strain/Indicator: TA102, Metabolic Activation: RAT, LIVER, S-9, DELOR 103, Method: STANDARD PLATE) “inactive; negative”.

Take `Cn1cnc2c(NO)ncnc21`: the mutagenic call was “inactive; negative” under setting [1]; “inactive; negative” (Test System: AMES SALMONELLA TYPHIMURIUM, Strain/Indicator: TA97, Metabolic Activation: RAT, LIVER, S-9, AROCLOR 1254, Method: STANDARD PLATE); “inactive; negative” under setting [2]; “active; positive” under setting [4]; “inactive; negative” under setting [3]; “inactive; negative” (Test System: AMES SALMONELLA TYPHIMURIUM, Strain/Indicator: TA100, Metabolic Activation: RAT, LIVER, S-9, AROCLOR 1254, Method: STANDARD PLATE).

Regarding `CC(=O)Nc1ccc(C)cc1`, the mutagenic call is, setting by setting: (Test System: AMES SALMONELLA TYPHIMURIUM, Strain/Indicator: TA97, Metabolic Activation: HAMSTER, LIVER, S-9, AROCLOR 1254 (10 OR 30%), Method: PREINCUBATION) “inactive; negative”; (Test System: AMES SALMONELLA TYPHIMURIUM, Strain/Indicator: TA97, Metabolic Activation: NONE, Method: PREINCUBATION) “inactive; negative”; (Test System: AMES SALMONELLA TYPHIMURIUM, Strain/Indicator: TA97, Metabolic Activation: RAT, LIVER, S-9, AROCLOR 1254 (10 OR 30%), Method: PREINCUBATION) “inactive; negative”; (Test System: AMES SALMONELLA TYPHIMURIUM, Strain/Indicator: TA98, Metabolic Activation: HAMSTER, LIVER, S-9, AROCLOR 1254 (10 OR 30%), Method: PREINCUBATION) “inactive; negative”; under setting [5], “inactive; negative”; (Test System: AMES SALMONELLA TYPHIMURIUM, Strain/Indicator: TA98, Metabolic Activation: RAT, LIVER, S-9, AROCLOR 1254 (10 OR 30%), Method: PREINCUBATION) “inactive; negative”. For the same molecule, the mutagenic call was “inactive; negative” (Test System: AMES SALMONELLA TYPHIMURIUM, Strain/Indicator: TA100, Metabolic Activation: HAMSTER, LIVER, S-9, AROCLOR 1254 (10%), Method: PREINCUBATION); “inactive; negative” (Test System: AMES SALMONELLA TYPHIMURIUM, Strain/Indicator: TA100, Metabolic Activation: HAMSTER, LIVER, S-9, AROCLOR 1254 (30%), Method: PREINCUBATION); “inactive; negative” under setting [6]; “inactive; negative” (Test System: AMES SALMONELLA TYPHIMURIUM, Strain/Indicator: TA100, Metabolic Activation: RAT, LIVER, S-9, AROCLOR 1254 (10 OR 30%), Method: PREINCUBATION); “inactive; negative” (Test System: AMES SALMONELLA TYPHIMURIUM, Strain/Indicator: TA1535, Metabolic Activation: HAMSTER, LIVER, S-9, AROCLOR 1254 (10 OR 30%), Method: PREINCUBATION); “inactive; negative” (Test System: AMES SALMONELLA TYPHIMURIUM, Strain/Indicator: TA1535, Metabolic Activation: NONE, Method: PREINCUBATION). In addition, the mutagenic call (Test System: AMES SALMONELLA TYPHIMURIUM, Strain/Indicator: TA1535, Metabolic Activation: RAT, LIVER, S-9, AROCLOR 1254 (10 OR 30%), Method: PREINCUBATION) is “inactive; negative”.

`O=c1[nH]c(=O)c2[nH]cnc2[nH]1`: the mutagenic call (Test System: MOUSE LYMPHOMA, Strain/Indicator: L5178Y (TK+/TK-), Metabolic Activation: NONE, Method: SUSPENSION/PLATE) was “inactive; negative”.

`Oc1ccc2c(c1)[nH]c1ccccc12`: the mutagenic call (Test System: CHINESE HAMSTER OVARY, Strain/Indicator: CHO-K1-BH4 (HGPRT)/6-THIOGUANINE, Metabolic Activation: RAT, LIVER, S-9, AROCLOR (4%)) was “active; positive”.

In the case of `Oc1ccc(N=Nc2ccccn2)c(O)c1`, the mutagenic call is, setting by setting: (End Point: Mouse lymphoma, Test System: L5178Y (TK+/TK-)/trifluorothymidine, Metabolic Activation: None, Method: Suspension/plate) “inactive; negative”; (End Point: Mouse lymphoma, Test System: L5178Y (TK+/TK-)/trifluorothymidine, Metabolic Activation: Rat, Liver, S-9, Method: Suspension/plate) “inactive; negative”; (Test System: Ames Salmonella typhimurium, Strain/Indicator: TA98, Metabolic Activation: None) “inactive; negative”; (Test System: Ames Salmonella typhimurium, Strain/Indicator: TA98, Metabolic Activation: Rat, Liver, S-9) “inactive; negative”; (Test System: Ames Salmonella typhimurium, Strain/Indicator: TA100, Metabolic Activation: None) “inactive; negative”; (Test System: Ames Salmonella typhimurium, Strain/Indicator: TA100, Metabolic Activation: Rat, Liver, S-9) “inactive; negative”. Besides, the mutagenic call was “inactive; negative” (Test System: Ames Salmonella typhimurium, Strain/Indicator: TA1535, Metabolic Activation: None); “inactive; negative” (Test System: Ames Salmonella typhimurium, Strain/Indicator: TA1535, Metabolic Activation: Rat, Liver, S-9); “inactive; negative” (Test System: Ames Salmonella typhimurium, Strain/Indicator: TA1537, Metabolic Activation: None); “inactive; negative” (Test System: Ames Salmonella typhimurium, Strain/Indicator: TA1537, Metabolic Activation: Rat, Liver, S-9).

As to `O=[N+]([O-])c1ccc(Cl)c(Cl)c1`, the mutagenic call is “inactive; negative” (End Point: IN VITRO CHROMOSOMAL ABERRATIONS, Test System: HUMAN PERIPHERAL LYMPHOCYTES, Metabolic Activation: NONE); “active; positive (structural changes). precipitation observed in culture medium at 0.16” (End Point: In vitro chromosomal aberrations, Test System: Chinese hamster lung (CHL/IU) cells, Metabolic Activation: Rat, Liver, S9, Phenobarbital and 5,6-benzoflavone); “inactive; negative” under setting [5]; “inactive; negative” under setting [2]; “inactive; negative” (Test System: AMES SALMONELLA TYPHIMURIUM, Strain/Indicator: TA98, Metabolic Activation: RAT LIVER S-9, AROCLOR 1254 (10%), Method: STANDARD PLATE); “inactive; negative” (Test System: AMES SALMONELLA TYPHIMURIUM, Strain/Indicator: TA98, Metabolic Activation: RAT, LIVER, S-9, KANECHLOR 500, Method: PREINCUBATION). Also, the mutagenic call runs as follows: under setting [6], “active; positive”; under setting [3], “inactive; negative”; (Test System: AMES SALMONELLA TYPHIMURIUM, Strain/Indicator: TA100, Metabolic Activation: RAT, LIVER, S-9, KANECHLOR 500, Method: PREINCUBATION) “active; positive”; (Test System: Ames Salmonella typhimurium, Strain/Indicator: TA98, Metabolic Activation: None, Method: Preincubaton) “inactive; negative”; (Test System: Ames Salmonella typhimurium, Strain/Indicator: TA98, Metabolic Activation: Rat, Liver, S9, Sodium phenobarbital and 5,6-benzoflavone (10%), Method: Preincubaton) “inactive; negative”; (Test System: Ames Salmonella typhimurium, Strain/Indicator: TA100, Metabolic Activation: None, Method: Preincubaton) “active; positive”. Also, the mutagenic call is, setting by setting: (Test System: Ames Salmonella typhimurium, Strain/Indicator: TA100, Metabolic Activation: Rat, Liver, S9, Sodium phenobarbital and 5,6-benzoflavone (10%), Method: Preincubaton) “active; positive”; (Test System: Ames Salmonella typhimurium, Strain/Indicator: TA1535, Metabolic Activation: None, Method: Preincubaton) “inactive; negative”; (Test System: Ames Salmonella typhimurium, Strain/Indicator: TA1535, Metabolic Activation: Rat, Liver, S9, Sodium phenobarbital and 5,6-benzoflavone (10%), Method: Preincubaton) “inactive; negative”; (Test System: Ames Salmonella typhimurium, Strain/Indicator: TA1537, Metabolic Activation: None, Method: Preincubaton) “inactive; negative”; (Test System: Ames Salmonella typhimurium, Strain/Indicator: TA1537, Metabolic Activation: Rat, Liver, S9, Sodium phenobarbital and 5,6-benzoflavone (10%), Method: Preincubaton) “inactive; negative”; (Test System: E. coli, Strain/Indicator: WP2uvrA/pKM101, Metabolic Activation: None, Method: Preincubaton) “inactive; negative”. The mutagenic call (Test System: E. coli, Strain/Indicator: WP2uvrA/pKM101, Metabolic Activation: Rat, Liver, S9, Sodium phenobarbital and 5,6-benzoflavone (10%), Method: Preincubaton) is “inactive; negative”.

For `CC(=O)Nc1ccc2c3c(cccc13)-c1cc(O)ccc1-2`, the mutagenic call was “active; positive” under setting [2] and “active; positive” under setting [4].
